The results in this text go back to US7834009B2, “4-hydroxy-5,6-dihydro-1H-pyridin-2-one compounds” (Anadys Pharmaceuticals, Inc., priority 2007, dated 2010).

pIC50: −log10 of the molar value.

The experiment deals with HCV NS5B polymerase (Hepatitis C virus genotype 1b, UniProt P26663). Nature of the experiment: biochemical. The note with it: 20 nM enzyme, 0.6 μM GTP, 250 nM 5′biotinylated oligo (rG13)/poly rC, 75 min at 28° C. Here is the method:
Compounds were tested for HCV polymerase inhibition. Assays were performed in a 96-well streptavidin-coated FlashPlate using 20 nM enzyme, 0.5 μCi of [α-^33P]GTP, 0.6 μM GTP, and 250 nM 5′biotinylated oligo (rG13)/poly rC in 20 mM Tris-HCl, pH 7.5, 5 mM MgCl2, 5 mM dithiothreitol, 0.1 g/L bovine serum albumin, and 100 U/mL RNAse inhibitor. The reaction was stopped by aspiration after 75 min at 28° C. and the plate was washed several times. After washing and drying the plate, incorporated radioactivity was counted using a Microbeta scintillation counter. IC50 values were calculated relative to the uninhibited control and inhibition data were fitted to a 4-parameter IC50 equation.

Sequence of HCV NS5B polymerase (P26663 2420-3010): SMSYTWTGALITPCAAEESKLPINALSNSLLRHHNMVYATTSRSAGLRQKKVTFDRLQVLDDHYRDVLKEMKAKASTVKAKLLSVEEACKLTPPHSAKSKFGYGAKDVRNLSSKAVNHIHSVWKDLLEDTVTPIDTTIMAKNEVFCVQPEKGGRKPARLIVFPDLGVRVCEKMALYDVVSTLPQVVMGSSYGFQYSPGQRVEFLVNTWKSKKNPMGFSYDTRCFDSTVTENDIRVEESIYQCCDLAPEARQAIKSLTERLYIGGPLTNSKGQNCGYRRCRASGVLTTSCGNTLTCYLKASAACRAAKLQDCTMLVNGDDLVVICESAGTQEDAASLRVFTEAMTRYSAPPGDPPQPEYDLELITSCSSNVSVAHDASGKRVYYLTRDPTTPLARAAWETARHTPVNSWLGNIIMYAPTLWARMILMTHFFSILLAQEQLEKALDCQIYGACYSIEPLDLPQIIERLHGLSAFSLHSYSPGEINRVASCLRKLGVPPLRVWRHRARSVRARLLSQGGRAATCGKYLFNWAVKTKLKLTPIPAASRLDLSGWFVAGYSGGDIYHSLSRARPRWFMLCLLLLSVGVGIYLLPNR

As for `CC(C)CCC1(C)C(O)=C(C2=NS(=O)(=O)c3cc(NS(C)(=O)=O)ccc3N2)C(=O)N2CCCC21` (centres unmarked) [Example 5, N-{3-[7-Hydroxy-8-methyl-8-(3-methyl-butyl)-5-oxo-1,2,3,5,8,8a-hexahydro-indolizin-6-yl]-1,1-dioxo-1,4-dihydro-1λ6-benzo[1,2,4]thiadiazin-7-yl}-methanesulfonamide], the pIC50 – broadly, the IC50 on a negative log10 scale, so that one unit is a factor of ten – was above 7.00.

In the case of `CC(C)CCC1(C)CN(N2CCCC2)C(=O)C(C2=NS(=O)(=O)c3cc(NS(C)(=O)=O)ccc3N2)=C1O` (centres unmarked) [Example 7, N-{3-[4-Hydroxy-5-methyl-5-(3-methyl-butyl)-2-oxo-1-pyrrolidin-1-yl-1,2,5,6-tetrahydro-pyridin-3-yl]-1,1-dioxo-1,4-dihydro-1λ^6-benzo[1,2,4]thiadiazin-7-yl}-methanesulfonamide], the pIC50 was above 7.00.

In turn, `CC(C)CCN1CC(C)(C)C(O)=C(C2=NS(=O)(=O)c3cc(NS(C)(=O)=O)ccc3N2)C1=O` [Example 11, N-{3-[4-Hydroxy-5,5-dimethyl-1-(3-methyl-butyl)-2-oxo-1,2,5,6-tetrahydro-pyridin-3-yl]-1,1-dioxo-1,4-dihydro-1λ^6-benzo[1,2,4]thiadiazin-7-yl}-methanesulfonamide] gave a pIC50 of 6.00 to 7.00.

`CC1(C)CN(C2CCCC2)C(=O)C(C2=NS(=O)(=O)c3cc(NS(C)(=O)=O)ccc3N2)=C1O` [Example 18, N-[3-(1-Cyclopentyl-4-hydroxy-5,5-dimethyl-2-oxo-1,2,5,6-tetrahydro-pyridin-3-yl)-1,1-dioxo-1,4-dihydro-1λ^6-benzo[1,2,4]thiadiazin-7-yl]-methanesulfonamide] gave a pIC50 of 5.40 to 6.00.

As for `CC(C)=CCC1CN(C2CCCC2)C(=O)C(C2=NS(=O)(=O)c3cc(NS(C)(=O)=O)ccc3N2)=C1O` (centres unmarked) [Example 22, N-{3-[1-Cyclopentyl-4-hydroxy-5-(3-methyl-but-2-enyl)-2-oxo-1,2,5,6-tetrahydro-pyridin-3-yl]-1,1-dioxo-1,4-dihydro-1λ^6-benzo[1,2,4]thiadiazin-7-yl}-methanesulfonamide], the negative logarithm of the IC50 (pIC50) was above 7.00.

`CC#CCC1(C)CN(C2CCCC2)C(=O)C(C2=NS(=O)(=O)c3cc(NS(C)(=O)=O)ccc3N2)=C1O` (centres unmarked) [Example 26, N-[3-(5-But-2-ynyl-1-cyclopentyl-4-hydroxy-5-methyl-2-oxo-1,2,5,6-tetrahydro-pyridin-3-yl)-1,1-dioxo-1,4-dihydro-1λ^6-benzo[1,2,4]thiadiazin-7-yl]-methanesulfonamide] had a pIC50 of 6.00 to 7.00.

Turning to `CC(C)(C)CCN1CC(C)(C2CCCC2)C(O)=C(C2=NS(=O)(=O)c3cc(NS(C)(=O)=O)ccc3N2)C1=O` (centres unmarked) [Example 30, N-{3-[5-Cyclopentyl-1-(3,3-dimethyl-butyl)-4-hydroxy-5-methyl-2-oxo-1,2,5,6-tetrahydro-pyridin-3-yl]-1,1-dioxo-1,4-dihydro-1λ^6-benzo[1,2,4]thiadiazin-7-yl}-methanesulfonamide], the pIC50 is above 7.00.

Consider `CC1(c2ccccc2)CN(C2CCC2)C(=O)C(C2=NS(=O)(=O)c3cc(NS(C)(=O)=O)ccc3N2)=C1O` (centres unmarked) [Example 32, N-[3-(1-Cyclobutyl-4-hydroxy-5-methyl-2-oxo-5-phenyl-1,2,5,6-tetrahydro-pyridin-3-yl)-1,1-dioxo-1,4-dihydro-1λ^6-benzo[1,2,4]thiadiazin-7-yl]-methanesulfonamide], for which the pIC50 is 5.40 to 6.00.

Turning to `CC(C)CCN1C(=O)C(C2=NS(=O)(=O)c3cc(NS(C)(=O)=O)ccc3N2)=C(O)C[C@@H]1c1ccccc1` [Example 49, N-{3-[4-Hydroxy-1-(3-methyl-butyl)-2-oxo-6(R)-phenyl-1,2,5,6-tetrahydro-pyridin-3-yl]-1,1-dioxo-1,4-dihydro-1λ^6-benzo[1,2,4]thiadiazin-7-yl}-methanesulfonamide], the negative logarithm of the IC50 (pIC50) is 6.00 to 7.00.

As for `CC(C)CCC1CC(O)=C(C2=NS(=O)(=O)c3cc(NS(C)(=O)=O)ccc3N2)C(=O)N1C1CCCC1` (centres unmarked) [Example 53, N-{3-[1-Cyclopentyl-4-hydroxy-6-(3-methyl-butyl)-2-oxo-1,2,5,6-tetrahydro-pyridin-3-yl]-1,1-dioxo-1,4-dihydro-1λ^6-benzo[1,2,4]thiadiazin-7-yl}-methanesulfonamide], the pIC50 was 5.40 to 6.00.

The compound `CC(C)CCC1(CO)CN(C2CCCC2)C(=O)C(C2=NS(=O)(=O)c3cc(NS(C)(=O)=O)ccc3N2)=C1O` (centres unmarked) [Example 54, N-{3-[1-Cyclopentyl-4-hydroxy-5-hydroxymethyl-5-(3-methyl-butyl)-2-oxo-1,2,5,6-tetrahydro-pyridin-3-yl]-1,1-dioxo-1,4-dihydro-1λ^6-benzo[1,2,4]thiadiazin-7-yl}-methanesulfonamide] gave a negative logarithm of the IC50 (pIC50) above 7.00.

Compound `CC(C)[C@H]1CC(O)=C(C2=NS(=O)(=O)c3cc(NS(C)(=O)=O)ccc3N2)C(=O)N1Cc1ccc(F)c(Cl)c1` [Example 55, N-{3-[1-(3-Chloro-4-fluoro-benzyl)-4-hydroxy-6(R)-isopropyl-2-oxo-1,2,5,6-tetrahydro-pyridin-3-yl]-1,1-dioxo-1,4-dihydro-1λ^6-benzo[1,2,4]thiadiazin-7-yl}-methanesulfonamide] showed a pIC50 above 7.00.

In the case of `CC(C)CC1CC(O)=C(C2=NS(=O)(=O)c3cc(NS(C)(=O)=O)ccc3N2)C(=O)N1C1CCCC1` (centres unmarked) [Example 56, N-[3-(1-Cyclopentyl-4-hydroxy-6-isobutyl-2-oxo-1,2,5,6-tetrahydro-pyridin-3-yl)-1,1-dioxo-1,4-dihydro-1λ^6-benzo[1,2,4]thiadiazin-7-yl]-methanesulfonamide], the pIC50 is 5.40 to 6.00.

Regarding `CC(C)CCC1(COCc2ccccc2)CN(C2CCCC2)C(=O)C(C2=NS(=O)(=O)c3cc(NS(C)(=O)=O)ccc3N2)=C1O` (centres unmarked) [Example 58, N-{3-[5-Benzyloxymethyl-1-cyclopentyl-4-hydroxy-5-(3-methyl-butyl)-2-oxo-1,2,5,6-tetrahydro-pyridin-3-yl]-1,1-dioxo-1,4-dihydro-1λ^6-benzo[1,2,4]thiadiazin-7-yl}-methanesulfonamide], the negative-log IC50 (pIC50) was 5.40 to 6.00.
